Measurements published in US20090181920A1, “INTRATHECAL TREATMENT OF NEUROPATHIC PAIN WITH A2AR AGONISTS” (PGXHEALTH, LLC, priority 2008, published 2009).

What was measured:
CCI-induced allodynia [1] = assay: Chronic constriction injury (CCI) neuropathic pain model, von Frey testing after a single intrathecal injection; type: in vivo, Sprague Dawley rats; conditions: for Effect on CCI-induced allodynia relative to ATL313 and CGS21680: tested at 1 uM
Protocol: (§1) Saline is used as the vehicle in the experiments. All A2A agonists are dissolved in 100% DMSO to a 10 mM concentration. These are then diluted 1:10,000 with saline. The total volume of injection for all groups is 5 μL, which consists of a 1 μL air bubble, 1 μL of agonist/vehicle, 1 μL air bubble, and finally a 2 μL flush of saline. The intermediate air bubble is used to separate drug/vehicle and the flush.
Sprague Dawley rats underwent chronic constriction injury (CCI) of the sciatic nerve or sham surgery. After pre-surgery baseline testing (Day 0=D0), rats received chronic constriction injury of the left sciatic nerve at mid-thigh level to produce neuropathic pain (chronic constriction injury model: CCI). This is seen by the fall in pain threshold between days 4 and 11 (D4, D11) after surgery relative to D0. Once CCI-induced allodynia was stable as tested by von Frey filaments, the material to be studied (e.g., vehicle or A2AR agonists CGS21680 or ATL313) was injected intrathecally. After injection, behavioral testing occurred at 4, 24, and 72 h and then weekly for 6 weeks.
The results of the studies are shown in FIG. 1 with the translation of Y-axis units as follows: 5=10 grams, 4.75=5.62 grams, 4.5=3.16 grams, 4.25=[…], 4=1 gram, 3.75=0.56 grams, 3.5=0.32 grams.
Although the CCI surgery is unilateral (left sciatic nerve), the allodynia is present bilaterally. In addition, the reversal of allodynia by A2A agonism also occurs bilaterally. Therefore, ATL313 activates A2A receptors within the spinal cord altering the mechanisms leading to central sensitization.
The animals following unilateral CCI surgery of the left sciatic nerve, as noted above, have allodynia in both hind paws. For simplicity all graphs show left hind paw responses only, as the right hind paw had equivalent responses.

CCI-induced allodynia [2] = assay: Blockade and reversal of A2A agonist (ATL313) by antagonist ZM241385 in the CCI model, von Frey testing; type: in vivo, male Sprague-Dawley rats
Protocol: as §1
CCI surgery and indwelling intrathecal catheters were implanted in male Sprague-Dawley rats (325-350 g, n=6/group). 10-14 days after surgery, when the allodynia is stable, an A2A antagonist (ZM241385, 10 uM, Tocris Bioscience) or vehicle was co-administered with ATL313 or vehicle. von Frey testing was done before surgery, before intrathecal injections, and 1, 2, 3, 4, 6, and 24 h after injection.
In a separate group of animals, ATL313 (1 uM) was administered 10-14 days after CCI surgery. One week after ATL313 (1 uM, i.t.) administration, ZM241385 (10 uM) or equivolume vehicle was administered intrathecally. von Frey testing was done 1, 2, 3, 4, 6 & 24 h after injection.

[3] = single intrathecal injection, 1 uM, given 10-14 days after CCI surgery, P<0.05

## COC(=O)N1CCC(CC#Cc2nc(N)c3ncn(C4OC(C(=O)NC5CC5)C(O)C4O)c3n2)CC1 (centres unmarked) [ATL313, 4-{3-[6-amino-9-(5-cyclopropylcarbamoyl-3,4-dihydroxy-tetrahydro-furan-2-yl)-9H-purin-2-yl]-prop-2-ynyl}-piperidine-1-carboxylic acid methyl ester]
CCI-induced allodynia [1]; 0.1 uM in 5 uL intrathecal, compared to saline-injected animals, P>0.05
  Effect on CCI-induced allodynia: no significant impact on CCI-induced allodynia
CCI-induced allodynia [1]; sham-operated animals, intrathecal, P>0.05
  Analgesic effect in sham-operated animals: no effect on sham-operated animals
CCI-induced allodynia [1]; [3]
  Duration of reversal of allodynia: at least 4 weeks
  Effect on CCI-induced allodynia (mechanical sensitivity to von Frey filaments): partial reversal of the allodynia

## CCNC(=O)[C@H]1O[C@@H](n2cnc3c(N)nc(NCCc4ccc(CCC(=O)O)cc4)nc32)[C@H](O)[C@@H]1O [CGS21680, 3-[4-[2-[[6-amino-9-[(2R,3R,4S,5S)-5-(ethylcarbamoyl)-3,4-dihydroxy-oxolan-2-yl]purin-2-yl]amino]ethyl]phenyl]propanoic acid, reference compound]
CCI-induced allodynia [1]; intrathecal, at a 10-fold higher dose than that of ATL313, P<0.001
  Reversal of CCI-induced allodynia compared with ATL313: comparable reversal of CCI-induced allodynia, in both duration and intensity

## COc1ccccc1OC(=O)N1CCC(CC#Cc2nc(N)c3ncn(C4OC(C(=O)NC5CC5)C(O)C4O)c3n2)CC1 (centres unmarked) [Compound A, 4-{3-[6-Amino-9-(5-cyclopropylcarbamoyl-3,4-dihydroxy-tetrahydro-furan-2-yl)-9H-purin-2-yl]-prop-2-ynyl}-piperidine-1-carboxylic acid 2-methoxyphenyl ester]
CCI-induced allodynia [1]; intrathecal
  Effect on CCI-induced allodynia relative to ATL313 and CGS21680: ranged between ATL313 (1 μM) and CGS21680 (1 μM)

## Nc1nc(C#CCC2CCN(C(=O)OC3CCC3)CC2)nc2c1ncn2C1OC(C(=O)NC2CC2)C(O)C1O (centres unmarked) [Compound B, 4-{3-[6-Amino-9-(5-cyclopropylcarbamoyl-3,4-dihydroxy-tetrahydro-furan-2-yl)-9H-purin-2-yl]-prop-2-ynyl}-piperidine-1-carboxylic acid cyclobutyl ester]
CCI-induced allodynia [1]; intrathecal
  Effect on CCI-induced allodynia relative to ATL313 and CGS21680: ranged between ATL313 (1 μM) and CGS21680 (1 μM)

## Nc1nc(C#CCC2CCN(C(=O)OCC3CC3)CC2)nc2c1ncn2C1OC(C(=O)NC2CC2)C(O)C1O (centres unmarked) [Compound C, 4-{3-[6-Amino-9-(5-cyclopropylcarbamoyl-3,4-dihydroxy-tetrahydro-furan-2-yl)-9H-purin-2-yl]-prop-2-ynyl}-piperidine-1-carboxylic acid cyclopropylmethyl ester]
CCI-induced allodynia [1]; intrathecal
  Effect on CCI-induced allodynia relative to ATL313 and CGS21680: ranged between ATL313 (1 μM) and CGS21680 (1 μM)

## Nc1nc(NCCc2ccc(O)cc2)nc2nc(-c3ccco3)nn12 [ZM241385]
CCI-induced allodynia [2]; ZM241385 10 uM co-administered intrathecally with ATL313 1 uM, 10-14 days after CCI surgery, P<0.0001
  Effect of co-administered antagonist on the ATL313 effect on CCI-induced allodynia: abolishes the effect of ATL313 on the CCI-induced allodynia
CCI-induced allodynia [2]; ZM241385 10 uM intrathecal, one week after ATL313 1 uM i.t.
  Effect of antagonist on the established reversal of allodynia: had no effect on reversal of the allodynia induced by the previous ATL313 administration
CCI-induced allodynia [2]; ZM241385 10 uM intrathecal, without agonist, P>0.05
  Effect of antagonist alone on CCI-induced allodynia: has no effect on the CCI-induced allodynia
